Substitutions are numbered along the chain they refer to.
Columns and labels:
[1] = target: T1, wild-type (WT) AT1 receptor (Rattus norvegicus, UniProt P25095); experiment: inositol phosphate (IP) production in COS1 cells expressing WT AT1 receptor; conditions: 1 µM compound, vs basal IP production
T1 sequence (P25095 1-359): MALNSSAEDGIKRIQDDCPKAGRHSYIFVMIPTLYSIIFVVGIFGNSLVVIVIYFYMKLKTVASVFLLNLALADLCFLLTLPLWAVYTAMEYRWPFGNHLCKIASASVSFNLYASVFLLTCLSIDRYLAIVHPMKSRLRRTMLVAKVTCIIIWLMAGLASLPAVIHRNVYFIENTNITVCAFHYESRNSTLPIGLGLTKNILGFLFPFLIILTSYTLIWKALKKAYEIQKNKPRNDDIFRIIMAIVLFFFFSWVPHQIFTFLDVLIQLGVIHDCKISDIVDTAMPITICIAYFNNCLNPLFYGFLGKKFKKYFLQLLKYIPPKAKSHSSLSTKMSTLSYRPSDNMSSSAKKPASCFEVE
Description: The test compounds were added 1 h before the measurement of IP.
The WT and mutant AT1 receptors were transiently transfected into COS1 cells using Lipofectamine 2000 liposomal reagent (Roche Applied Science) according to the manufacturer’s instructions.
Cells expressing the WT and mutant AT1 receptors were incubated for 30 minutes at 22°C with or without the indicated concentrations of ARBs. The cells were washed-out once with the use of excess cold HBSS, and used in an IP production study. Total soluble IP was measured by the perchloric acid extraction method, as described previously [16].

[2] = target: T2, AT1 C76A/L112C/C289A mutant receptor (Rattus norvegicus, UniProt P25095, C289A/C76A/L112C); experiment: competition binding, C76A/L112C/C289A mutant; conditions: for Kd ratio relative to WT (in parentheses): C76A/L112C/C289A / WT; for Kd: C76A/L112C/C289A, COS1 membranes, read-out: Binding affinity (Kd)
T2 construct: expressed in transfected cells; host or cells: COS1
T2 sequence (P25095 1-359 C76A/L112C/C289A): T1 sequence (P25095 1-359) with C76A, L112C, C289A
Description: (§1) The Kd and Bmax values of receptor binding were determined by ^125I-[Sar^1, Ile^8] […] Membranes expressing the WT or mutant AT1 receptors were incubated with 100 pM ^125I-[Sar^1, Ile^8] […] The binding reaction was terminated by filtering the incubation mixture through Whatman GF/C glass filters, and the residues were extensively washed further with binding buffer. The bound ligand fraction was determined from the counts per minute (cpm) remaining on the membrane. Binding kinetics values were determined as previously described.

[3] = target: T3, AT1 V116A mutant receptor (Rattus norvegicus, UniProt P25095, V116A); experiment: competition binding, V116A mutant; conditions: for Kd ratio relative to WT (in parentheses): V116A / WT; for Kd: V116A, COS1 membranes, read-out: Binding affinity (Kd)
T3 construct: expressed in transfected cells; host or cells: COS1
T3 sequence (P25095 1-359 V116A): T1 sequence (P25095 1-359) with V116A
Description: as §1

[4] = target: T4, AT1 wild-type (WT) receptor (Rattus norvegicus, UniProt P25095); experiment: 125I-[Sar1,Ile8]AngII competition binding, wild-type receptor; conditions: for Kd / Kd ratio relative to olmesartan (in parentheses): WT; for Kd: COS1 cell membranes, 100 pM 125I-[Sar1,Ile8]AngII, 1 h 22°C, read-out: Binding affinity (Kd); for Kd ratio relative to olmesartan (in parentheses): compound Kd / olmesartan Kd
T4 construct: expressed in transfected cells; host or cells: COS1
T4 sequence (P25095 1-359): T1 sequence (P25095 1-359)
Description: as §1

[5] = target: T5, AT1 A106G mutant receptor (Rattus norvegicus, UniProt P25095, A106G); experiment: competition binding, A106G mutant; conditions: for Kd ratio relative to WT (in parentheses): A106G / WT; for Kd: A106G, COS1 membranes, read-out: Binding affinity (Kd)
T5 construct: expressed in transfected cells; host or cells: COS1
T5 sequence (P25095 1-359 A106G): T1 sequence (P25095 1-359) with A106G
Description: as §1

[6] = target: T6, AT1 A114G mutant receptor (Rattus norvegicus, UniProt P25095, A114G); experiment: competition binding, A114G mutant; conditions: for Kd ratio relative to WT (in parentheses): A114G / WT; for Kd: A114G, COS1 membranes, read-out: Binding affinity (Kd)
T6 construct: expressed in transfected cells; host or cells: COS1
T6 sequence (P25095 1-359 A114G): T1 sequence (P25095 1-359) with A114G
Description: as §1

[7] = target: T7, AT1 S107A mutant receptor (Rattus norvegicus, UniProt P25095, S107A); experiment: competition binding, S107A mutant; conditions: for Kd ratio relative to WT (in parentheses): S107A / WT; for Kd: S107A, COS1 membranes, read-out: Binding affinity (Kd)
T7 construct: expressed in transfected cells; host or cells: COS1
T7 sequence (P25095 1-359 S107A): T1 sequence (P25095 1-359) with S107A
Description: as §1

| Pharmacological behaviour toward IP production (agonism / neutral antagonism / inverse agonism) [1] | Kd ratio relative to WT (in parentheses) [2] | Kd [2] | Kd ratio relative to WT (in parentheses) [3] | Kd [3] | Kd ratio relative to WT (in parentheses) ([4]; WT / WT) | Kd [4] | Kd ratio relative to olmesartan (in parentheses) [4] | Kd ratio relative to WT (in parentheses) [5] | Kd [5] | Kd ratio relative to WT (in parentheses) [6] | Kd [6] | Kd ratio relative to WT (in parentheses) [7] | Kd [7] | SMILES |
| --- | --- | --- | --- | --- | --- | --- | --- | --- | --- | --- | --- | --- | --- | --- |
| inverse agonist | 2.7 fold | 6.1 ± 2.1 nM | 3.8 fold | 8.8 ± 1.2 nM | 1.0 fold | 2.3 ± 0.8 nM | 1.0 fold | 2.6 fold | 6.1 ± 2.2 nM | 1.7 fold | 4 ± 1.4 nM | 1.1 fold | 2.5 ± 0.5 nM | CCCc1nc(C(C)(C)O)c(C(=O)O)n1Cc1ccc(-c2ccccc2-c2nnn[nH]2)cc1 [Olmesartan, olmesartan, reference compound] |
| neutral antagonist | 4.0 fold | 3.2 ± 1.3 nM | 3.2 fold | 2.6 ± 0.7 nM |  | 0.8 ± 0.3 nM | 0.3 fold | 6.0 fold | 4.8 ± 1.5 nM | 1.4 fold | 1.1 ± 0.1 nM | 1.6 fold | 1.3 ± 0.2 nM | CCCc1nc(C(C)(C)O)c(C(N)=O)n1Cc1ccc(-c2ccccc2-c2nnn[nH]2)cc1 [R239470] |
| agonism | 1.3 fold | 62 ± 9 nM | 45 fold | 2150 ± 802 nM |  | 48 ± 12 nM |  | 17 fold | 792 ± 202 nM | 3.8 fold | 183 ± 17 nM | 1.2 fold | 59 ± 27 nM | CCCc1nc(C(C)(C)O)c(C(N)=O)n1Cc1ccc(-c2cc(Cc3ccc(O)cc3)ccc2-c2nnn[nH]2)cc1 [R794847] |

From PMC3375280 (PLoS ONE, 2012)
